# Laboratory results as given in patent US20170182080A1, “FUNCTIONAL SCAFFOLD FOR TISSUE REPAIR AND REGENERATION” (priority 2014, published 2017).
# Columns and labels:
# [1] = system: rat adipose derived cells; assay: Alkaline phosphatase (ALP) activity, osteogenic differentiation in 3D TG-Gel culture; format: cell-based; settings: day 5
# Protocol: (§1) Using the matrix as described above, the medium was changed to regular growth medium at day 5 and maintained for 14 days. Alkaline phosphatase (ALP) activity and staining were performed to characterize early osteogenesis at day 5 and calcium staining at day 14. ALP activity was determined by biochemical assay based on conversion of p-nitrophenyl phosphate to p-nitrophenol (pNPP), which was measured spectrophotometrically at 405 nm absorbance. Briefly, TG-Gel-Cell, a transglutaminase crosslinked gelatin gel and cell mixture, construct was washed twice with PBS and homogenized with buffer solution (0.25% TritonX-100 in PBS). After three freezing-thawing cycles, cells were released from TG-Gel by adding 50 μL of 0.25% trypsin and incubated at 37° C. for 4 hours. ALP activity was then quantified by using p-NPP as a substrate (Pierce, USA). The absorbance was measured by a multiplate reader (Molecular Devices, CA) after 30 minutes of incubation at 37° C. The ALP activity was specified as an arbitrary unit of ALP absorbance that normalized with cell numbers. Alizarin Red S staining as late marker of osteogenic differentiation was performed to determine the degree of calcium deposition as described. […] The supernatant was collected and absorbance was measured by a multiplate reader (Molecular Devices, CA).
# [2] = system: rat adipose derived cells; assay: Alizarin Red S calcium deposition, osteogenic differentiation in 3D TG-Gel culture; format: cell-based; settings: day 14
# Protocol: as §1, with “CA). […]” for “CA).”
# Fisher rats = assay: Cartilage defect model (osteochondral defect in trochlear groove), histology; format: in vivo, rat; settings: 4.5% Tg-Gel + 50 μL Aza (500 nM) implanted in defect; at 7 days; cell morphology resembles chondrogenic cells
# Protocol: (§2) Fisher rats (7-8-weeks old, 200-250 g each) were used in this study. They were randomly enrolled into two experimental groups,A, 4.5% Tg-Gel +50 μL PBS and B, 4.5% Tg-Gel +50 μL Aza (500 nM), 4 animals per group. A 3-mm diameter×2-mm deep osteochondral defect was drilled into the rat trochlear groove, using a dermal biopsy punch (Miltex, Inc.). Implant gel was placed in the defect area. Skin was closed with 4-0 suture. […]
# as §2, with “Tg-Gel+50” for “Tg-Gel +50”, “diamete×2-mm” for “diameter×2-mm”
# [3] = system: rat adipose derived cells; assay: Ki-67 proliferation marker immunohistochemical staining in 3D TG-Gel culture; format: cell-based
# Protocol: 10^6/m1 rat adipose derived cells was suspended in the gelatin-transglutaminase crosslinked gel also referred to TG-Gel. Gel concentrations ranged from 3%, 4.5%, 6%, and 7.5%. A cell suspension in 20 μL volume was transferred in each well of 48 well culture plate followed by incubation at 37° C. for 30 min for gelation. 1.0 ml of medium (10%FBS/DMEM) with 5 nM Aza was added in each well and the plate was placed in a 5% CO2 37° C. incubator for 5 day culture. At day 5, cell proliferation marker (Ki-67) immune histochemical staining was performed on 3D culture. Medium without Aza was used as control.
# The detection of Ki67, a proliferation marker, was performed using Anti-Ki-67 (Rabbit Monoclonal antibody, Clone SP6, from Thermo Scientific).
# [4] = system: >8 month old retired rats; assay: Cranial defect model, bone growth and healing by histology; format: in vivo, rat; settings: 500 nM Aza in collagen sponge; 5 mm skull defect; no exogenous BMP-2; four weeks
# Protocol: Collagen matrix (as described above) was prepared and cut into 5 mm discs. An 5 mm diameter circular opening was created in the skull of >8 month old retired rats using circular drill bit including a lip to restrict the depth of the circular cutting. 500 nM of Aza was applied directly into the collagen sponge before implantation. Control included collagen discs without added Aza-CR but same volume of PBS. After four weeks of implantation, bone growth and healing status were evaluated histologically.
# MSC or adipose cells = assay: Anti-N-cadherin staining, cardiomyocyte differentiation; format: cell-based; settings: w/AZA-CR; 4.5% TG-Gel
# adipose cell 3D culture = assay: Anti-MyoD staining, myogenesis differentiation in adipose cell 3D culture; format: cell-based; settings: w/AZA-CR
# Text: A myogenic marker such as MyoD was stained on day 14 adipose cell 3D culture. The anti-MyoD antibody is a monoclonal available from Pierce.
smiles,measurement,setting,value
"Nc1ncn([C@@H]2O[C@H](CO)[C@@H](O)[C@H]2O)c(=O)n1 [AZA-CR, 5-azacytidine]",ALP activity,[1]; versus without AZA-CR,enhanced
same,TG-Gel concentration at which ALP peaked,[1]; with and without AZA-CR,6 % TG-Gel
same,calcium deposition,[2]; versus without AZA-CR,enhanced
same,TG-Gel concentration at which calcium deposition peaked,[2]; with and without AZA-CR,9 % TG-Gel
same,"histology of osteochondral defect site, area adjacent to subchondral bone",Fisher rats,neo cell infiltration
same,"Ki67 positive staining, Aza group versus control",[3]; 3%-4.5% gel condition,no difference
same,"Ki67 positive staining, Aza group versus control","[3]; 6%-7% gel condition, evenly distributed in whole 3D construct",significantly more positive stained cells
same,"Anti - Ki67, Center","[3]; w/AZA-CR (5 nM Aza in medium), 4.5% TG-Gel, day 5",~30%
same,"Anti - Ki67, Center and Peripheral (evenly distributed)","[3]; w/AZA-CR (5 nM Aza in medium), 6% TG-Gel, day 5",Evenly distributed (~80%)
same,"Anti - Ki67, Center and Peripheral (evenly distributed)","[3]; w/AZA-CR (5 nM Aza in medium), 7.5% TG-Gel, day 5",Evenly distributed (~50%)
same,bone remodeling at the bony defect site,[4],significant bone remodeling
same,"Anti-N-Cadherin, Center",MSC or adipose cells,~50%
same,"Anti-MyoD on day 14, Center and Peripheral (evenly distributed)",adipose cell 3D culture; 4.5% TG-Gel,~80% Evenly Distributed
same,"Anti-MyoD on day 14, Center and Peripheral (evenly distributed)",adipose cell 3D culture; 6% TG-Gel,~70% Evenly Distributed
